Measured values as given in US8969395B2, “Triterpenoid derivatives useful as antiproliferative agents” (Universidade de Coimbra, priority 2009, dated 2015).

Assays:
Format in all cases: cell-based
Settings in all cases: 72 h, mean ±SD
[1] = system: HepG2 (human hepatocellular carcinoma); assay: Cytotoxic activity, MTT assay, HepG2
Experimental: (§1) The cytotoxic of compounds of formulas (I) and (II) 14-50 was assessed towards human cancer (HepG2, HeLa and Jurkat) cell lines (Table 3 below). Compounds presented on Table 4 were also tested against a non-tumoral liver cell line (Chang liver). The cell viability of HeLa, HepG2 and Chang liver cells was determined by the MTT assay. Briefly, exponentially growing cells were plated in 96-well plates at a density of 1×10^3, 8×10^3 and 5×10^3 cells/well respectively and incubated for 24 h before treatment. The grown medium was replaced with one contained the tested compounds dissolved in DMSO (final DMSO concentration <0.1%) at different concentrations, in triplicate wells, and cells were incubated for 72 h. After incubation with the compounds, the medium was removed and MTT solution (0.5 mg/ml, 100 μl) was added to each well and the plates were incubated again for 1 h. DMSO (100 μl) was then added to dissolve the formazan crystals and the plates were immediately read at 550 nm on an ELISA plate reader (Tecan Sunrise MR20-301, TECAN, Austria). For the Jurkat cells, the cell viability was determined by the XTT assay. Briefly, exponentially growing cells were plated in 96-well plates at a density of 5.5×10^3 cells/well, treated with different concentrations of compounds in triplicate and incubated for 72 h. After incubation with the compounds the XTT labeling mixture (100 μl) were added to each of the wells and after a 4 h incubation period the plates were read at 450 nm on an ELISA plate reader. […] Known for its cytotoxic activity, betulinic acid 2 was used as a positive control in this experimentation. […] All the IC50 results represent an average of a minimum of three experiments and were expressed as means±standard deviation (SD).

[2] = system: Jurkat (human leukemia); assay: Cytotoxic activity, XTT assay, Jurkat
Experimental: as §1

[3] = system: HeLa (human cervical adenocarcinoma); assay: Cytotoxic activity, MTT assay, HeLa
Experimental: The cytotoxic of compounds of formulas (I) and (II) 14-50 was assessed towards human cancer (HepG2, HeLa and Jurkat) cell lines (Table 3 below). Compounds presented on Table 4 were also tested against a non-tumoral liver cell line (Chang liver). The cell viability of HeLa, HepG2 and Chang liver cells was determined by the MTT assay. Briefly, exponentially growing cells were plated in 96-well plates at a density of 1×10^3, 8×10^3 and 5×10^3 cells/well respectively and incubated for 24 h before treatment. The grown medium was replaced with one contained the tested compounds dissolved in DMSO (final DMSO concentration <0.1%) at different concentrations, in triplicate wells, and cells were incubated for 72 h. After incubation with the compounds, the medium was removed and MTT solution (0.5 mg/ml, 100 μl) was added to each well and the plates were incubated again for 1 h. DMSO (100 μl) was then added to dissolve the formazan crystals and the plates were immediately read at 550 nm on an ELISA plate reader (Tecan Sunrise MR20-301, TECAN, Austria). For the Jurkat cells, the cell viability was determined by the XTT assay. Briefly, exponentially growing cells were plated in 96-well plates at a density of 5.5×10^3 cells/well, treated with different concentrations of compounds in triplicate and incubated for 72 h. After incubation with the compounds the XTT labeling mixture (100 μl) were added to each of the wells and after a 4 h incubation period the plates were read at 450 nm on an ELISA plate reader. […] Known for its cytotoxic activity, betulinic acid 2 was used as a positive control in this experimentation.

[4] = system: Chang liver (human normal liver cells); assay: Cytotoxic activity against non-tumoral cell line, MTT assay
Experimental: as §1

Structure (SMILES)	IC50 [1] [µM]	IC50 [2] [µM]	IC50 [3] [µM]	IC50 [4] [µM]
C=C(C)[C@@H]1CC[C@]2(C(=O)n3ccnc3)CC[C@]3(C)[C@H](CC[C@@H]4[C@@]5(C)C=C(O)C(=O)C(C)(C)[C@@H]5CC[C@]43C)[C@@H]12 [Compound 48, 2-hydroxy-28-(1H-imidazol-1-yl)-lup-1,20(29)-dien-3,28-dione]	6.5 ± 0.4	7 ± 1.6	4.6 ± 0.7	62.8 ± 10.3
C=C(C)[C@@H]1CC[C@]2(C(=O)n3ccnc3)CC[C@]3(C)[C@H](CC[C@@H]4[C@@]5(C)C=C(OC(=O)n6ccnc6)C(=O)C(C)(C)[C@@H]5CC[C@]43C)[C@@H]12 [Compound 49, 2-(1H-imidazole-1-carbonyloxy)-28-(1H-imidazol-1-yl)-lup-1,20(29)-dien-3,28-dione]	4 ± 0.3	8.1 ± 0.6	3.9 ± 0.3	71.6 ± 4.9
C=C(C)[C@@H]1CC[C@]2(COC(C)=O)CC[C@]3(C)[C@H](CC[C@@H]4[C@@]5(C)CC[C@H](OC(=O)n6ccnc6C)C(C)(C)[C@@H]5CC[C@]43C)[C@@H]12 [Compound 26, 28-acetoxy-lup-20(29)-en-3β-yl-2′-methyl-1H-imidazole-1-carboxylate]	> 30	> 30	> 30	
C=C(C)[C@@H]1CC[C@]2(C(=O)OC)CC[C@]3(C)[C@H](CC[C@@H]4[C@@]5(C)CC[C@H](OC(=O)n6ccnc6)C(C)(C)[C@@H]5CC[C@]43C)[C@@H]12 [Compound 33, Methyl 3β-(1H-imidazole-1-carbonyloxy)-lup-20(29)-en-28-oate]	4.3 ± 0.1	9.9 ± 0.6	8.2 ± 0.5	73.9 ± 3.6
C=C(C)[C@@H]1CC[C@]2(COC(=O)n3ccnc3C)CC[C@]3(C)[C@H](CC[C@@H]4[C@@]5(C)CC[C@H](OC(=O)n6ccnc6C)C(C)(C)[C@@H]5CC[C@]43C)[C@@H]12 [Compound 18, Lup-20(29)-en-3β,28-di-yl-(2′-methyl-1H-imidazole-1-carboxylate)]	> 30	> 30	> 30	
